# Experimental data from ChEMBL document CHEMBL1158059, “Oculatol, oculatolide, and A-nor sterols from the sponge Haliclona oculata” (J Nat Prod, 2006).
# Assays:
# [1] = target: T1, Tyrosine-protein phosphatase non-receptor type 1 (Homo sapiens, UniProt P18031); test: Inhibition of PTP1B
# T1 sequence (P18031 whole entry): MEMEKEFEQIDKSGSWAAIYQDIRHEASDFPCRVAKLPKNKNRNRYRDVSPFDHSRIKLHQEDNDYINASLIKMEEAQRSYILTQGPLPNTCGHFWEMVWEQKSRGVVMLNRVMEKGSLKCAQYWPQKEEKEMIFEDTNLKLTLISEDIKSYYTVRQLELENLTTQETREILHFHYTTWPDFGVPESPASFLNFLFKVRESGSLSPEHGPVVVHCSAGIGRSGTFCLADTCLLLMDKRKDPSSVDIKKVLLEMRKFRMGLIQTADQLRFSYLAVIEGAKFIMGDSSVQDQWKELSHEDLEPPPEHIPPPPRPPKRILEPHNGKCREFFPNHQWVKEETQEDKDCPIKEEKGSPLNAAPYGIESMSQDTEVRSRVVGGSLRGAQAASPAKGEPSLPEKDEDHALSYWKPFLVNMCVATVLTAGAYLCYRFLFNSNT
# [2] = system: Bel-7402; test: Cytotoxicity against human Bel-7402 cells; assay type: functional, cell-based
# [3] = system: HeLa; test: Cytotoxicity against human HeLa cells; assay type: functional, cell-based
# [4] = system: A549; test: Cytotoxicity against human A549 cells; assay type: functional, cell-based
# [5] = target: Acetylcholinesterase (Homo sapiens, UniProt P22303); test: Inhibition of AChE
# Sequence of Acetylcholinesterase (P22303 whole entry): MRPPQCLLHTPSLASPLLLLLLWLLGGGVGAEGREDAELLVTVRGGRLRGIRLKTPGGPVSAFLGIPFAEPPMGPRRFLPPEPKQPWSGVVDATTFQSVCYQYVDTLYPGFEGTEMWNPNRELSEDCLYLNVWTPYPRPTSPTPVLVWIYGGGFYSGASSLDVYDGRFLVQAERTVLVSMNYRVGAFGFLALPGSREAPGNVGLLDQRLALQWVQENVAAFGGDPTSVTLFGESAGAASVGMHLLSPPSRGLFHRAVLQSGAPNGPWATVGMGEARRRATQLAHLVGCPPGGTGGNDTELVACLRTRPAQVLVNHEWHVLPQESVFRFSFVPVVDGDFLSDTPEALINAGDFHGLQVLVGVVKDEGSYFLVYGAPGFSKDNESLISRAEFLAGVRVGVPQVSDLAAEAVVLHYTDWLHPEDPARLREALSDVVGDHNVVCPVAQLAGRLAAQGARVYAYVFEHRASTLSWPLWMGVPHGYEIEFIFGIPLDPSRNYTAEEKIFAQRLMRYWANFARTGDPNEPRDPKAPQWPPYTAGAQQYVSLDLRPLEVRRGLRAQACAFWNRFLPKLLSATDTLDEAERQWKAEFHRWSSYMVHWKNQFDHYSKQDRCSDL
# [6] = system: HL-60; test: Cytotoxicity against human HL-60 cells; assay type: functional, cell-based
# [7] = target: T2, Prostaglandin G/H synthase 2 (Homo sapiens, UniProt P35354); test: Inhibition of COX2
# T2 sequence (P35354 whole entry): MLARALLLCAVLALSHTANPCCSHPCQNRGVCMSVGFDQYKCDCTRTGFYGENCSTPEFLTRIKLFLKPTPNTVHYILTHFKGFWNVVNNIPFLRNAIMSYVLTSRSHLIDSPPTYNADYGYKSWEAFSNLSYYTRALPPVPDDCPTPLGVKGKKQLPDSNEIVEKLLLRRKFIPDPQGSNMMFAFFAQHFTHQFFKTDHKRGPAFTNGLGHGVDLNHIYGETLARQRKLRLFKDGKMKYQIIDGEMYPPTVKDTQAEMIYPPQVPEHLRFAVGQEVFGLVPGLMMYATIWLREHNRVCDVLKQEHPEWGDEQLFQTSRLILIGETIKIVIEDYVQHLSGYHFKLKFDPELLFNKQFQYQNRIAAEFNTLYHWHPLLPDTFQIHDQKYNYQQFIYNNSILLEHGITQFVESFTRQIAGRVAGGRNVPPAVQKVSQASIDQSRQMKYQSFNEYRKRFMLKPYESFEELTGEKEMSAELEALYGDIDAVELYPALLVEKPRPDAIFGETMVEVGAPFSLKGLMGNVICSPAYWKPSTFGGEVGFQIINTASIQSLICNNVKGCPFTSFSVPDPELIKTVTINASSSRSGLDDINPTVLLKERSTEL
smiles,measurement,setting,value
C=C(CC[C@@H](C)[C@H]1CC[C@H]2[C@@H]3CC=C4C(=O)[C@](O)(C(=O)OCC)C[C@]4(C)[C@H]3CC[C@]12C)C(C)C,IC50,[1],> 21.2 µM
same,IC50,[2],0.73 µg/mL
same,IC50,[3],> 10 µg/mL
same,IC50,[4],0.47 µg/mL
same,IC50,[5],> 21.2 µM
same,IC50,[6],0.32 µg/mL
same,IC50,[7],> 21.2 µM
